One may read the IC50 as the concentration that inhibits the measured activity by half. A high value points to weaker potency.

One assay relates to HT-29. The assay is described as follows: Cytotoxicity against human HT-29 cells by MTT assay. It is filed as functional, cell-based. (Formazan colour is commonly taken as a measure of viable cells.)
Assay [1] can be described thus: Cytotoxicity against human HCT 116 cells by MTT assay. It is filed as functional, cell-based.

In brackets after ≈: the same amount, converted by molar mass.

For `CC(C)=CC(=O)O[C@H]1CC(C)(C)C[C@H]2C3=CC[C@@H]4[C@@]5(C)CC[C@H](O[C@@H]6O[C@H](C(=O)O)[C@@H](O[C@H]7O[C@H](C)[C@@H](O)[C@H](O)[C@@H]7O)[C@H](O)[C@H]6O[C@@H]6O[C@H](CO)[C@@H](O)[C@H](O)[C@H]6O)C(C)(C)[C@@H]5CC[C@@]4(C)[C@]3(C)[C@@H](O)[C@@H](O)[C@@]12CO`, the IC50 (in the assay on HT-29; in assay [1]) was 40 µg/mL (≈ 37.8 µM) in each case. Take `C/C=C(/C)C(=O)O[C@H]1[C@H](O)C(C)(C)C[C@H]2C3=CC[C@@H]4[C@@]5(C)CC[C@H](O[C@@H]6O[C@H](C(=O)O)[C@@H](O[C@@H]7O[C@@H](C)[C@H](O)[C@@H](O)[C@H]7O)[C@H](O)[C@H]6O[C@H]6O[C@@H](CO)[C@H](O)[C@@H](O)[C@@H]6O)C(C)(C)[C@@H]5CC[C@@]4(C)[C@]3(C)[C@@H](O)[C@@H](O)[C@]21CO`: the IC50 (with HT-29; in assay [1]) was above 100 µg/mL each time.

On to `CC(C)=CC(=O)O[C@H]1CC(C)(C)C[C@H]2C3=CC[C@@H]4[C@@]5(C)CC[C@H](O[C@@H]6O[C@H](C(=O)O)[C@@H](O)[C@H](O)[C@H]6O[C@H]6O[C@H](C)[C@@H](O)[C@H](O)[C@@H]6O)C(C)(C)[C@@H]5CC[C@@]4(C)[C@]3(C)[C@@H](O)[C@@H](O)[C@@]12CO`, for which the IC50 (in the assay on HT-29; in assay [1]) was 40 µg/mL (≈ 44.7 µM) in each case. With `C/C=C(/C)C(=O)O[C@H]1[C@H](O)C(C)(C)C[C@H]2C3=CC[C@@H]4[C@@]5(C)CC[C@H](O[C@@H]6O[C@H](C(=O)O)[C@@H](O)[C@H](O)[C@H]6O[C@H]6O[C@H](C)[C@@H](O)[C@H](O)[C@@H]6O)C(C)(C)[C@@H]5CC[C@@]4(C)[C@]3(C)[C@@H](O)[C@@H](O)[C@]21COC(C)=O`, the 50% inhibitory concentration (IC50) (with HT-29; in assay [1]) was above 100 µg/mL throughout. For `C/C=C(/C)C(=O)O[C@H]1[C@H](OC(C)=O)C(C)(C)C[C@H]2C3=CC[C@@H]4[C@@]5(C)CC[C@H](O[C@@H]6O[C@H](C(=O)O)[C@@H](O)[C@H](O)[C@H]6O[C@H]6O[C@H](C)[C@@H](O)[C@H](O)[C@@H]6O)C(C)(C)[C@@H]5CC[C@@]4(C)[C@]3(C)[C@@H](O)[C@@H](O)[C@]21CO`, the IC50 (in the assay with HT-29; in assay [1]) was 40 µg/mL (≈ 42 µM) each time. In the case of `CC(=O)OC1[C@H](OC(=O)C=C(C)C)[C@]2(CO)[C@H](O)[C@H](O)[C@]3(C)C(=CC[C@@H]4[C@@]5(C)CC[C@H](O[C@@H]6O[C@H](C(=O)O)[C@@H](O)[C@H](O)[C@H]6O[C@H]6O[C@H](C)[C@@H](O)[C@H](O)[C@@H]6O)C(C)(C)[C@@H]5CC[C@]43C)[C@@H]2CC1(C)C` (stereo not given in full), the 50% inhibitory concentration (IC50) (in the assay on HT-29; in assay [1]) was 40 µg/mL (≈ 42 µM) throughout. Consider `C/C=C(/C)C(=O)O[C@H]1[C@H](O)C(C)(C)C[C@H]2C3=CC[C@@H]4[C@@]5(C)CC[C@H](O[C@@H]6O[C@H](C(=O)O)[C@@H](O)[C@H](O)[C@H]6O[C@H]6O[C@H](C)[C@@H](O)[C@H](O)[C@@H]6O)C(C)(C)[C@@H]5CC[C@@]4(C)[C@]3(C)[C@@H](O)[C@@H](O)[C@]21CO`, for which the IC50 (in the assay on HT-29; in assay [1]) was 40 µg/mL (≈ 43.9 µM) in each case. Take `CC(=O)O[C@H]1C(=O)[C@@]2(C)[C@H]([C@H](OC(=O)c3ccccc3)[C@]3(O)C[C@H](OC(=O)[C@H](O)[C@@H](NC(=O)c4ccccc4)c4ccccc4)C(C)=C1C3(C)C)[C@]1(OC(C)=O)CO[C@@H]1C[C@@H]2O` [PACLITAXEL]: the midpoint of inhibition in assay [1], the IC50, lay at 0.008 µg/mL (≈ 0.00937 µM).

For the origin of these results see ChEMBL document CHEMBL1158028, “Triterpene saponins from Eryngium campestre” (J Nat Prod, 2006).
